Source: patent US20250262172A1 (ANTECIP BIOVENTURES II LLC, priority 2022, published 2025)

Experiments:
[1] = Concomitant use of the subject combination with strong CYP2D6 inhibitors; type: in vivo, human; settings: subject combination with one or more strong CYP2D6 inhibitors
From the text: In some embodiments, the subject composition may be co-administered with one or more strong Inhibitors of CYP2D6. […] It is, thus, recommended to monitor patients for adverse effects or adverse reactions potentially attributable to dextromethorphan, such as somnolence and dizziness.

[2] = CYP2D6 inhibited by quinidine; vs patients who were not CYP2D6 poor metabolizers; cited from earlier work
[3] = 7 days of twice-daily 30 mg dextromethorphan and 30 mg quinidine; cited from earlier work
[4] = Steady state pharmacokinetic data in 12 poor metabolizers in efficacy clinical trials (Example 2); settings: 105 mg bupropion hydrochloride and 45 mg dextromethorphan hydrobromide twice a day
[5] = Clinical trials of the bupropion and dextromethorphan combination, poor metabolizers vs other patients
[6] = Pharmacokinetics in 3 CYP2D6 poor metabolizers given bupropion hydrochloride 105 mg and dextromethorphan hydrobromide 45 mg twice a day (Example 1); settings: 3 poor metabolizers; 105 mg bupropion hydrochloride and 45 mg dextromethorphan hydrobromide twice a day
[7] = Effect of CYP2D6 poor metabolizer status on pharmacokinetics of the 45 mg dextromethorphan hydrobromide / 105 mg bupropion hydrochloride tablet (Example 3, FIG. 1); settings: CYP2D6 poor metabolizers vs extensive or ultra-extensive metabolizers; after 8 days of twice daily dosing of the tablet
[8] = powder; cited from earlier work

Structure (SMILES)	plasma concentrations of dextromethorphan [1]	AUC0-12 of dextromethorphan higher for CYP2D6 poor metabolizers [2]	Cmax of dextromethorphan higher for poor metabolizers [2]	increase in AUC0-12 of poor metabolizers compared to extensive metabolizers [3] [fold]	increase in Cmax of poor metabolizers compared to extensive metabolizers [3]	plasma concentrations of dextromethorphan vs exposures for non-poor metabolizer [4]	Cmax and AUC of dextromethorphan in poor metabolizers vs patients who are not poor metabolizers [5]	increase in dextromethorphan AUC0-12 compared to extensive metabolizers [6] [fold]	increase in dextromethorphan Cmax compared to extensive metabolizers [6] [fold]	increase in dextromethorphan AUC0-12 (GMR) [7] [fold]	increase in dextromethorphan Cmax (GMR) [7] [fold]	solubility in water [8]
COc1ccc2c(c1)[C@]13CCCC[C@@H]1[C@H](C2)N(C)CC3 [dextromethorphan]	increases	about 46%	about 40%	~1.46	about 1.43 fold	generally higher	significantly higher	~3.4	~3	3.40	3.00	–
CC(NC(C)(C)C)C(=O)c1cccc(Cl)c1.Cl (racemic) [Bupropion hydrochloride, (±)-1-(3-chlorophenyl)-2-[(1,1-dimethylethyl)amino]-1-propanone hydrochloride]	–	–	–	–	–	–	–	–	–	–	–	highly soluble
Br.COc1ccc2c(c1)[C@]13CCCC[C@@H]1[C@H](C2)N(C)CC3 [Dextromethorphan hydrobromide, morphinan, 3-methoxy-17-methyl-, (9α, 13α, 14α), hydrobromide monohydrate]	–	–	–	–	–	–	–	–	–	–	–	sparingly soluble
